How the values were obtained:
[1] = system: corn; assay: Test B pre/postemergence corn; assay type: in vivo, Zea mays
Summary of the method: (§1)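 Response is a visual 0-to-10 score relative to untreated plants, where 0 means no effect and 10 means complete control, taken twelve to sixteen days after application. Treatments went onto soil at planting and onto foliage of 1- to 4-leaf plants, using a surfactant-containing non-phytotoxic solvent.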

[2] = system: crabgrass; assay: Test B pre/postemergence crabgrass; assay type: in vivo, Digitaria sanguinalis
Summary of the method: as §1

[3] = system: giant foxtail; assay: Test B pre/postemergence giant foxtail; assay type: in vivo, Setaria faberii
Summary of the method: as §1

[4] = system: surinam grass; assay: Test B pre/postemergence surinam grass; assay type: in vivo, Brachiaria decumbens
Summary of the method: as §1

[5] = system: wild oat; assay: Test B pre/postemergence wild oat; assay type: in vivo, Avena fatua
Summary of the method: as §1

[6] = system: blackgrass; assay: Test B pre/postemergence blackgrass; assay type: in vivo, Alopecurus myosuroides
Summary of the method: as §1

[7] = system: cocklebur; assay: Test B pre/postemergence cocklebur; assay type: in vivo, Xanthium strumarium
Summary of the method: as §1

[8] = system: bedstraw; assay: Test B pre/postemergence bedstraw; assay type: in vivo, Galium aparine
Summary of the method: as §1

[9] = system: velvetleaf; assay: Test B pre/postemergence velvetleaf; assay type: in vivo, Abutilon theophrasti
Summary of the method: as §1

[10] = system: purple nutsedge; assay: Test B pre/postemergence purple nutsedge; assay type: in vivo, Cyperus rotundus
Summary of the method: as §1

[11] = system: morningglory; assay: Test B pre/postemergence morningglory; assay type: in vivo, Ipomoea hederacea
Summary of the method: as §1

[12] = system: soybean; assay: Test B pre/postemergence soybean; assay type: in vivo, Glycine max
Summary of the method: as §1

[13] = system: wheat; assay: Test B pre/postemergence wheat; assay type: in vivo, Triticum aestivum
Summary of the method: as §1

[14] = Postemergence, Rate 125 g/ha, scale of 0 to 10 where 0 is no effect and 10 is complete control
[15] = Preemergence, Rate 62 g/ha, scale of 0 to 10 where 0 is no effect and 10 is complete control
[16] = Preemergence, Rate 125 g/ha, 0 is no effect, 10 is complete control
[17] = Preemergence, Rate 250 g/ha, scale 0 to 10, 0 is no effect, 10 is complete control
[18] = Preemergence, Rate 500 g/ha, scale 0 to 10 (0 no effect, 10 complete control)
[19] = Rate 62 g/ha, Postemergence, scale of 0 to 10 where 0 is no effect and 10 is complete control
[20] = Rate 250 g/ha, Postemergence, scale 0 to 10, 0 is no effect, 10 is complete control
[21] = Rate 500 g/ha, Postemergence, scale 0 to 10

Compound: CC1CCCCC1n1c(=O)on(C(=O)N(c2ccc(F)cc2F)C(C)C)c1=O (stereo not shown) [Compound 172]
- Corn plant response rating [1, 14]: 0
- Corn plant response rating [1, 15]: 0
- Corn plant response rating (0 to 10 scale) [1, 16]: 0
- Corn plant response rating [1, 17]: 0
- Corn plant response rating [1, 18]: 0
- Corn plant response rating [1, 19]: 0
- Plant response rating, Corn [1, 20]: 0
- Corn plant response rating [1, 21]: 0
- Crabgrass plant response rating [2, 14]: 3
- Crabgrass plant response rating [2, 15]: 7
- Crabgrass plant response rating (0 to 10 scale) [2, 16]: 8
- Crabgrass plant response rating [2, 17]: 10
- Crabgrass plant response rating [2, 18]: 10
- Crabgrass plant response rating [2, 19]: 0
- Plant response rating, Crabgrass [2, 20]: 9
- Crabgrass plant response rating [2, 21]: 9
- Giant foxtail plant response rating [3, 14]: 0
- Giant foxtail plant response rating [3, 15]: 8
- Giant foxtail plant response rating (0 to 10 scale) [3, 16]: 9
- Giant foxtail plant response rating [3, 17]: 10
- Giant foxtail plant response rating [3, 18]: 10
- Giant foxtail plant response rating [3, 19]: 0
- Plant response rating, Giant foxtail [3, 20]: 0
- Giant foxtail plant response rating [3, 21]: 0
- B. signalgrass plant response rating [4, 14]: 0
- B. signalgrass plant response rating [4, 15]: 2
- B. signalgrass plant response rating (0 to 10 scale) [4, 16]: 5
- B. signalgrass plant response rating [4, 17]: 5
- B. signalgrass plant response rating [4, 18]: 8
- B. signalgrass plant response rating [4, 19]: 0
- Plant response rating, B. signalgrass [4, 20]: 0
- B. signalgrass plant response rating ([4]; Rate 500 g/ha, Postemergence, scale 0 to 10, 0 no effect, 10 complete control): 0
- Wild oats plant response rating [5, 15]: 0
- Wild oats plant response rating (0 to 10 scale) [5, 16]: 0
- Wild oats plant response rating [5, 17]: 3
- Wild oats plant response rating [5, 18]: 6
- Plant response rating, Wild oats [5, 20]: 0
- Wild oats plant response rating [5, 21]: 0
- Blackgrass plant response rating [6, 14]: 0
- Blackgrass plant response rating [6, 15]: 0
- Blackgrass plant response rating (0 to 10 scale) [6, 16]: 0
- Blackgrass plant response rating [6, 17]: 3
- Blackgrass plant response rating [6, 18]: 3
- Blackgrass plant response rating [6, 19]: 0
- Plant response rating, Blackgrass [6, 20]: 5
- Blackgrass plant response rating [6, 21]: 5
- Cocklebur plant response rating [7, 14]: 0
- Cocklebur plant response rating [7, 15]: 0
- Cocklebur plant response rating (0 to 10 scale) [7, 16]: 0
- Cocklebur plant response rating [7, 17]: 0
- Cocklebur plant response rating [7, 18]: 0
- Cocklebur plant response rating [7, 19]: 0
- Plant response rating, Cocklebur [7, 20]: 0
- Cocklebur plant response rating [7, 21]: 2
- Bedstraw plant response rating [8, 14]: 0
- Bedstraw plant response rating [8, 15]: 0
- Bedstraw plant response rating (0 to 10 scale) [8, 16]: 0
- Bedstraw plant response rating [8, 17]: 3
- Bedstraw plant response rating [8, 18]: 5
- Bedstraw plant response rating [8, 19]: 0
- Plant response rating, Bedstraw [8, 20]: 8
- Velvetleaf plant response rating [9, 15]: 0
- Velvetleaf plant response rating (0 to 10 scale) [9, 16]: 0
- Velvetleaf plant response rating [9, 17]: 0
- Velvetleaf plant response rating [9, 18]: 3
- Plant response rating, Velvetleaf [9, 20]: 0
- Velvetleaf plant response rating [9, 21]: 2
- Nutsedge plant response rating [10, 14]: 0
- Nutsedge plant response rating [10, 15]: 0
- Nutsedge plant response rating (0 to 10 scale) [10, 16]: 0
- Nutsedge plant response rating [10, 17]: 0
- Nutsedge plant response rating [10, 18]: 0
- Nutsedge plant response rating [10, 19]: 0
- Plant response rating, Nutsedge [10, 20]: 0
- Nutsedge plant response rating [10, 21]: 0
- Morningglory plant response rating [11, 14]: 5
- Morningglory plant response rating [11, 15]: 0
- Morningglory plant response rating (0 to 10 scale) [11, 16]: 0
- Morningglory plant response rating [11, 17]: 0
- Morningglory plant response rating [11, 18]: 0
- Morningglory plant response rating [11, 19]: 2
- Plant response rating, Morningglory [11, 20]: 5
- Morningglory plant response rating [11, 21]: 8
- Soybean plant response rating [12, 14]: 3
- Soybean plant response rating [12, 15]: 0
- Soybean plant response rating (0 to 10 scale) [12, 16]: 0
- Soybean plant response rating [12, 17]: 0
- Soybean plant response rating [12, 18]: 0
- Soybean plant response rating [12, 19]: 2
- Plant response rating, Soybean [12, 20]: 3
- Soybean plant response rating [12, 21]: 5
- Wheat plant response rating [13, 15]: 0
- Wheat plant response rating (0 to 10 scale) [13, 16]: 0
- Wheat plant response rating [13, 17]: 0
- Wheat plant response rating [13, 18]: 0
- Plant response rating, Wheat [13, 20]: 0
- Wheat plant response rating [13, 21]: 0
